Experimental data published in patent EP4806900A2, “RAS INHIBITORS” (Revolution Medicines, Inc., priority 2019, dated 2021).
Several values for one entry are separate records, joined by “and”; a condition that tells them apart may be missing. Identical values can stand only once.

system: NCI-H358 (K-Ras G12C); assay: CellTiter-Glo cell viability assay, NCI-H358; format: cell-based, human; settings: Homo sapiens, NCI-H358, Table 5; read-out: H358 Cell Viability assay data (K-Ras G12C, IC50)
Method in brief: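 Compounds dispensed directly onto plated NCI-H358 cells; plates equilibrated to room temperature on day 5 before luminescence read-out. Signal normalized to mean DMSO control (%) and fitted by four-parameter logistic.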

IC50 [µM] | SMILES
< 0.01 | C=CC(=O)N1CC[C@H](C(=O)N(C)[C@H](C(=O)N[C@H]2Cc3cc(O)cc(c3)-c3ccc4c(c3)c(c(-c3cnn(C)c3[C@H](C)OC)n4CC)CC(C)(C)COC(=O)[C@@H]3CCCN(N3)C2=O)C(C)C)C1 [Compound A166]
0.1 to 1 | C=CC(=O)N1CC[C@H](C(=O)N(C)[C@H](C(=O)N[C@H]2C[C@H]3CN(CCO3)c3ccc4c(c3)c(c(-c3cccnc3[C@H](C)OC)n4CC)CC(C)(C)COC(=O)[C@@H]3CCCN(N3)C2=O)C(C)C)C1 [Compound A378]
0.01 to 0.1 | CO[C@@H](C)c1ncccc1-c1c2c3cc(ccc3n1CC(F)(F)F)-c1nnc(o1)C[C@H](NC(=O)[C@H](C(C)C)N(C)C(=O)[C@H]1CCN(C(=O)C#CC(C)(C)N3CCC3)C1)C(=O)N1CCC[C@H](N1)C(=O)OCC(C)(C)C2 [Compound A423]
0.1 to 1 | C=CC(=O)N1CC[C@H](C(=O)N(C)[C@H](C(=O)N[C@H]2CC3=NN=C(O3)c3ccc4c(c3)c(c(-c3cccnc3[C@H](C)OCC)n4CC(F)(F)F)CC(C)(C)COC(=O)[C@@H]3CCCN(N3)C2=O)C(C)C)C1 [Compound A424]
0.1 to 1 | C=CC(=O)N1CC[C@H](C(=O)N(C)C(C(=O)N[C@H]2C[C@H]3CN(CCO3)c3ccc4c(c3)c(c(-c3cccnc3[C@H](C)OC)n4CC)CC(C)(C)COC(=O)[C@@H]3CCCN(N3)C2=O)C(C)C)C1 (stereo partly shown) [Compound A507]
< 0.01 | CO[C@@H](C)c1ncc(N2CCN(C)CC2)cc1-c1c2c3cc(ccc3n1CC(F)(F)F)-c1cccc(c1)C[C@H](NC(=O)[C@H](C(C)C)N(C)C(=O)C1(F)CCN(C(=O)C#CC(C)(C)N(C)C)CC1)C(=O)N1CCC[C@H](N1)C(=O)OCC(C)(C)C2 [Compound A542, 1-(4-(dimethylamino)-4-methylpent-2-ynoyl)-4-fluoro-N-((2S)-1-(((6^1S,4S)-1^2-(2-((S)-1-methoxyethyl)-5-(4-methylpiperazin-1-yl)pyridin-3-yl)-10,10-dimethyl-5,7-dioxo-1^1-(2,2,2-trifluoroethyl)-6^1,6^2,6^3,6^4,6^5,6^6-hexahydro-1^1H-8-oxa-1(5,3)-indola-6(1,3)-pyridazina-2(1,3)-benzenacycloundecaphane-4-yl)amino)-3-methyl-1-oxobutan-2-yl)-N-methylpiperidine-4-carboxamide]

same assay, conditions: Homo sapiens, NCI-H358, read-out: H358 Cell Viability assay data (K-Ras G12C, IC50, uM), Table 5

SMILES | IC50 [µM]
C=CS(=O)(=O)N1CC[C@H](C(=O)N(C)[C@H](C(=O)N[C@H]2Cc3cc(O)cc(c3)-c3ccc4c(c3)c(c(-c3cccnc3[C@H](C)OC)n4CC)CC(C)(C)COC(=O)[C@@H]3CCCN(N3)C2=O)C(C)C)C1 [Compound A132] | < 0.01
CCn1c(-c2cccnc2COC)c2c3cc(ccc31)-c1cc(O)cc(c1)C[C@H](NC(=O)[C@H](C(C)C)N(C)C(=O)[C@H]1CCN(C(=O)C#CCOC)C1)C(=O)N1CCC[C@H](N1)C(=O)OCC(C)(C)C2 [Compound A135] | < 0.01
C=CC(=O)N1CC[C@H](C(=O)N(C)[C@H](C(=O)N[C@H]2Cc3cc(O)cc(c3)-c3ccc4c(c3)c(c(-c3cc(CN(C)C)cnc3COC)n4CC)CC(C)(C)COC(=O)[C@@H]3CCCN(N3)C2=O)C(C)C)C1 [Compound A149] | 0.01 to 0.1
CCn1c(-c2cccnc2COC)c2c3cc(ccc31)-c1cc(C)cc(c1)C[C@H](NC(=O)[C@H](C(C)C)N(C)C(=O)[C@H]1CCN(C(=O)C#CCN(C)C)C1)C(=O)N1CCC[C@H](N1)C(=O)OCC(C)(C)C2 [Compound A157] | < 0.01
C=CC(=O)N1CC[C@H](C(=O)N(C)[C@H](C(=O)N[C@H]2Cc3cc(O)cc(c3)-c3ccc4c(c3)c(c(-c3cccnc3)n4C3CC3)CC(C)(C)COC(=O)[C@@H]3CCCN(N3)C2=O)C(C)C)C1 [Compound A160] | 0.1 to 1
CCn1c(-c2cccnc2COC)c2c3cc(ccc31)-c1cc(O)cc(c1)C[C@H](NC(=O)[C@H](C(C)C)N(C)C(=O)[C@H]1CCN(C(=O)/C=C\CN(C)C)C1)C(=O)N1CCC[C@H](N1)C(=O)OCC(C)(C)C2 [Compound A161] | > 1
C=CC(=O)N1CC[C@H](C(=O)N(C)[C@H](C(=O)N[C@H]2Cc3cc(O)cc(c3)-c3ccc4c(c3)c(c(-c3cc(C)cnc3[C@H](C)OC)n4CC)CC(C)(C)COC(=O)[C@@H]3CCCN(N3)C2=O)C(C)C)C1 [Compound A167] | < 0.01
CCn1c(-c2cccnc2[C@H](C)OC)c2c3cc(ccc31)-c1cc(O)cc(c1)C[C@H](NC(=O)[C@H](C(C)C)N(C)C(=O)[C@H]1CCN(C(=O)C#CCN3CCOCC3)C1)C(=O)N1CCC[C@H](N1)C(=O)OCC(C)(C)C2 [Compound A182] | < 0.01
C=CC(=O)Nc1ccc(C(=O)N(C)[C@H](C(=O)N[C@H]2Cc3cc(O)cc(c3)-c3ccc4c(c3)c(c(-c3cccnc3[C@H](C)OC)n4CC)CC(C)(C)COC(=O)[C@@H]3CCCN(N3)C2=O)C(C)C)cn1 [Compound A250] | < 0.01
C=CC(=O)N1CC[C@H](C(=O)N(C)[C@H](C(=O)N[C@H]2Cc3nc(cs3)-c3ccc4c(n3)c(c(-c3cccnc3[C@H](C)OC)n4CC)CC(C)(C)COC(=O)[C@@H]3CCCN(N3)C2=O)C(C)C)C1 [Compound A347, (2S)-N-[(7S,13S)-21-ethyl-20-{2-[(1S)-1-methoxyethyl]pyridin-3-yl}-17,17-dimethyl-8,14-dioxo-15-oxa-4-thia-9,21,25,27,28-pentaazapentacyclo[17.5.2.1^{2,5}.1^{9,13}.0^{22,26}]octacosa-1(25),2,5(28),19,22(26),23-hexaen-7-yl]-3-methyl-2-{N-methyl-1-[(3S)-1-(prop-2-enoyl)pyrrolidin-3-yl]formamido}butanamide] | 0.1 to 1
CCn1c(-c2cccnc2[C@H](C)OC)c2c3cc(ccc31)-c1csc(n1)C[C@H](NC(=O)[C@H](C(C)C)N(C)C(=O)N(C)C1CN(C(=O)/C=C/C(C)(C)O)C1)C(=O)N1CCC[C@H](N1)C(=O)OCC(C)(C)C2 [Compound A350] | 0.1 to 1
CCn1c(-c2cccnc2C(C)OC)c2c3cc(ccc31)-c1cccc(c1)CC(NC(=O)C(C(C)C)N1CCC3(CCN(C(=O)C#CC(C)(C)N4CCC4)C3)C1=O)C(=O)N1CCCC(N1)C(=O)OCC(C)(C)C2 (stereo not shown) [Compound A365] | < 0.01
CCn1c(-c2cccnc2[C@H](C)OC)c2c3cc(ccc31)-c1csc(n1)C[C@H](NC(=O)[C@H](C(C)C)N(C)C(=O)N1CC(N(C)C(=O)C#CC(C)(C)N3CCC3)C1)C(=O)N1CCC[C@H](N1)C(=O)OCC(C)(C)C2 [Compound A379] | < 0.01
C=CC(=O)N1CCN(C(=O)N(C)[C@H](C(=O)N[C@H]2Cc3nc(cs3)-c3ccc4c(c3)c(c(-c3cccnc3[C@H](C)OC)n4CC(F)(F)F)CC(C)(C)COC(=O)[C@@H]3CCCN(N3)C2=O)C(C)C)CC1 [Compound A464] | < 0.01
CO[C@@H](COC1CN(C(=O)C#CC(C)(C)N(C)C)C1)C(=O)N[C@H]1Cc2cccc(c2)-c2ccc3c(c2)c(c(-c2cccnc2[C@H](C)OC)n3CC(F)(F)F)CC(C)(C)COC(=O)[C@@H]2CCCN(N2)C1=O [Compound A556] | < 0.01
C=CC(=O)N1CCOC2CCN(C(=O)N(C)C(C(=O)NC3Cc4nc(cs4)-c4ccc5c(c4)c(c(-c4cccnc4C(C)OC)n5CC)CC(C)(C)COC(=O)C4CCCN(N4)C3=O)C(C)C)CC21 (stereo not shown) [Compound A596] | < 0.01
C=CC(=O)N1CC[C@H](C(=O)N(C)[C@H](C(=O)N[C@H]2Cc3cc(CF)cc(c3)-c3ccc4c(c3)c(c(-c3cccnc3[C@H](C)OC)n4CC(F)(F)F)CC(C)(C)COC(=O)[C@@H]3CCCN(N3)C2=O)C(C)C)C1 [Compound A659] | < 0.01

same assay, conditions: Table 5; read-out: H358 Cell Viability assay data (K-Ras G12C, IC50)

IC50 | SMILES
< 0.01 µM and 0.01 to 0.1 µM | CC#CC(=O)N1CC[C@H](C(=O)N(C)[C@H](C(=O)N[C@H]2Cc3cc(O)cc(c3)-c3ccc4c(c3)c(c(-c3cccnc3[C@H](C)OC)n4CC)CC(C)(C)COC(=O)[C@@H]3CCCN(N3)C2=O)C(C)C)C1 [Compound A145, (2S)-2-{1-[(3S)-1-(but-2-ynoyl)pyrrolidin-3-yl]-N-methylformamido}-N-[(8S,14S,20M)-22-ethyl-4-hydroxy-21-{2-[(1S)-1-methoxyethyl]pyridin-3-yl}-18,18-dimethyl-9,15-dioxo-16-oxa-10,22,28-triazapentacyclo[18.5.2.1^2,^6.1^10,^14.0^23,^27]nonacosa-1(26),2,4,6(29),20,23(27),24-heptaen-8-yl]-3-methylbutanamide]
< 0.01 µM and 0.01 to 0.1 µM | CCn1c(-c2cncnc2C(C)C)c2c3cc(ccc31)-c1cc(O)cc(c1)C[C@H](NC(=O)[C@H](C(C)C)N(C)C(=O)[C@H]1CCN(C(=O)C#CCN(C)C)C1)C(=O)N1CCC[C@H](N1)C(=O)OCC(C)(C)C2 [Compound A155]
0.01 to 0.1 µM | C=CC(=O)N1CC2CCC1CN2C(=O)N(C)[C@H](C(=O)N[C@H]1Cc2nc(cs2)-c2ccc3c(c2)c(c(-c2cccnc2[C@H](C)OC)n3CC)CC(C)(C)COC(=O)[C@@H]2CCCN(N2)C1=O)C(C)C [Compound A420]
0.01 to 0.1 µM | CCn1c(-c2cccnc2C(C)OC)c2c3cc(ccc31)-c1cccc(c1)C[C@H](NC(=O)[C@H](C(C)C)N(C)C(=O)N1CCC13CN(C(=O)C#CC(C)(C)N(C)C)C3)C(=O)N1CCC[C@H](N1)C(=O)OCC(C)(C)C2 (stereo partly shown) [Compound A717]
0.1 to 1 µM | C=CC(=O)N1CC[C@H](C(=O)N(C)[C@H](C(=O)N[C@H]2Cc3cc(O)cc(c3)-c3ccc4c(c3)c(c(-c3ccc(CN5CC[C@@H](O)C5)cc3)n4CC)CC(C)(C)COC(=O)[C@@H]3CCCN(N3)C2=O)C(C)C)C1 [Examples A1]

same assay, conditions: read-out: H358 Cell Viability assay data (K-Ras G12C, IC50); Table 5

SMILES | IC50 [µM]
C=CC(=O)Nc1ccc(C(=O)N(C)[C@H](C(=O)N[C@H]2Cc3cc(O)cc(c3)-c3ccc4c(c3)c(c(-c3cccnc3[C@H](C)OC)n4CC)CC(C)(C)COC(=O)[C@@H]3CCCN(N3)C2=O)C(C)C)cn1 [Compound A336] | < 0.01
C=CC(=O)N1CCN(C(=O)N(C)[C@H](C(=O)N[C@H]2Cc3nc(cs3)-c3ccc4c(c3)c(c(-c3cccnc3[C@H](C)OC)n4CC(F)(F)F)CC(C)(C)COC(=O)[C@@H]3CCCN(N3)C2=O)C(C)C)CC1 [Compound A465] | < 0.01
C=CC(=O)N1CC[C@H](C(=O)N(C)[C@H](C(=O)N[C@H]2Cc3cccc(c3)-c3ccc4c(c3)c(c(-c3cc(C5=CCN(C)CC5)cnc3[C@H](C)OC)n4CC)CC(C)(C)COC(=O)[C@@H]3CCCN(N3)C2=O)C(C)C)C1 [Compound A514] | 0.1 to 1
